# Measured values as given in patent US20210299134A1, “TREATMENT OF B CELL MALIGNANCIES” (MEI Pharma, Inc., priority 2018, published 2021).
# Marks after values point to notes of the source that are not given here.
# Experiments:
# Plasma half-life = type: in vivo; details: human, oral, healthy volunteers and patients with B-cell malignancies
# Excerpt: It is known that administration of an oral drug over a period equivalent to approximately 7 half-lives is necessary to achieve steady state plasma concentrations required for optimal antitumor activity, and that a period of approximately 7 half-lives is needed to clear a drug from the plasma after treatment interruption. TREGs repopulation occurs approximately 14 days after the administration of a single dose of the anti-CD25 immunotoxin denileukin diftitox (ONTAK®), a drug known to suppress TREGs. Therefore, it was hypothesized that administration of Compound A35 at 60 mg/day for 7 consecutive days will result in steady-state plasma concentrations sufficient to inhibit PI3K5 in target malignant B-cells and that 21 days without treatment will be sufficient to repopulate TREGs, which comprises 7 days to clear Compound A35 from the plasma (˜7 half-lives) and 14 days for reconstitution of TREGs after Compound A35 is cleared from the plasma.
# [1] = test system: patients with FL or CLL/SLL; assay: Phase 1b study: adverse events of special interest (AESI) on IS or CS; type: in vivo, human
# Excerpt: In some instances, severe cases of enterocolitis, rash, and transaminitis have been reported in a Phase 1b clinical study of Compound A35 in patients with B-cell malignancies. In some instances, the onset of severe immune-related toxicities were reported after a period of CS dosing greater than 2 cycles. A lymphocytic infiltrate was reported in biopsies obtained from 1 patient with colitis and 1 patient with severe skin rash enrolled in the study. Furthermore, corticosteroid therapy has been reported as effective treatment approach in patients who developed diarrhea and rash in the study.
# Following reports of delayed onset of cases of enterocolitis and rash in patients with Compound A35 initially administered once a day on a continuous dosing schedule (CS) in a 28-day cycle, an alternate dosing regimen using an intermittent dosing schedule (IS) was evaluated. The hypothesis was that an IS of PI3K5 inhibitors including Compound A35 could reduce the incidence or lower the severity of immune mediated adverse events (irAEs) by allowing recovery of TREGs during treatment-free intervals. Furthermore, it was hypothesized that the IS, by delivering a lower dose-intensity treatment approach, could be used to re-treat patients who have experienced delayed irAEs on the CS or IS and had recovered following treatment interruption and a short course of corticosteroids.
# An intermittent dosing schedule on days 1-7 of a 28-day cycle was then evaluated after 2 cycles of daily dosing, or ≥3 cycles of daily dosing to reduce the risk of immune-related adverse events. For this analysis the intermittent schedule (IS) group is defined as patients who received Compound A35 alone or with rituximab daily for 2 cycles then switched to an intermittent schedule of 1 week per cycle, and the continuous schedule (CS) group is defined as patients who never switched to intermittent dosing or switched to intermittent dosing in cycle 4 or later cycles. Toxicity on CS is managed by a switch to IS.
# The IS was developed to mitigate the risk of delayed toxicities observed with PI3K inhibitors and believed to be associated with on-target effect PI3K inhibition on immune cells.
# [2] = Plasma levels >IC90 and plasma versus tissue levels on intermittent dosing (FIGS. 6A-6B); type: in vivo, human; details: FIG. 6A
# Excerpt: There is also evidence pointing to a role for the PI3K pathway in T lymphocytes, which may explain these immune dysregulations. For example, in mice, genetic inactivation of p110δ results in a decrease of the function of regulatory T-cells (TREGs), a subset population of T-cells. […] In some instances, PI3K5 inhibition results in various immune-mediated toxicities such as enterocolitis and skin toxicity due to TREG suppression, as well as infections due to suppression of B-cells and effector T-cells. In some instances, treatment regimens with small molecule PI3K5 delta (or PI3K5) inhibitors on an intermittent dosing schedule (IS) are used. However, in certain instances, progression of disease is observed in subjects who are treated for B-cell malignancies, including chronic lymphocytic leukemia (CLL) and lymphomas with small molecule PI3K5 inhibitors (e.g., parsaclisib (INCB050465)) on an IS dosing regimen (see FIG. 6B). […] In some embodiments, the methods of treatment and dosing regimens and schedules described herein provide an efficacious and tolerable treatment of cancer. In some embodiments, the methods of treatment and dosing regimens and schedules described herein improve the frequency, severity and time to onset of the adverse events (AEs) associated with PI3K delta inhibitors. […]
structure (smiles),measurement,setting,value
CN1CCC(c2ccccc2CC(C)(C)Nc2nc(N3CCOCC3)nc(-n3c(C(F)F)nc4ccccc43)n2)CC1 [Compound A35],half-life,Plasma half-life,~28 h
same,"AESI ALT/AST increased, All Grades, patients (%)","[1]; CLL/SLL, All (N = 17)",2 (11.8%)
same,"AESI ALT/AST increased, Related Grade 3, patients (%)","[1]; CLL/SLL, All (N = 17)",0%
same,"AESI Diarrhea/colitis, All Grades, patients (%)","[1]; CLL/SLL, All (N = 17)",9 (52.9%)
same,"AESI Diarrhea/colitis, Related Grade 3, patients (%)","[1]; CLL/SLL, All (N = 17)",4 (23.5%)
same,"AESI Mucositis, All Grades, patients (%)","[1]; CLL/SLL, All (N = 17)",1 (5.9%)
same,"AESI Mucositis, Related Grade 3, patients (%)","[1]; CLL/SLL, All (N = 17)",0%
same,"AESI Pneumonia/Pneumonitis, All Grades, patients (%)","[1]; CLL/SLL, All (N = 17)",3 (17.6%)
same,"AESI Pneumonia/Pneumonitis, Related Grade 3, patients (%)","[1]; CLL/SLL, All (N = 17)",3 (17.6%)
same,"AESI Rash, all types, All Grades, patients (%)","[1]; CLL/SLL, All (N = 17)",6 (35.3%)
same,"AESI Rash, all types, Related Grade 3, patients (%)","[1]; CLL/SLL, All (N = 17)",0%
same,"AESI ALT/AST increased, All Grades, patients (%)","[1]; CLL/SLL, CS Group (N = 9)",2 (22.2%)
same,"AESI ALT/AST increased, Related Grade 3, patients (%)","[1]; CLL/SLL, CS Group (N = 9)",0%
same,"AESI Diarrhea/colitis, All Grades, patients (%)","[1]; CLL/SLL, CS Group (N = 9)",6 (66.7%)
same,"AESI Diarrhea/colitis, Related Grade 3, patients (%)","[1]; CLL/SLL, CS Group (N = 9)",3 (33.3%)
same,"AESI Mucositis, All Grades, patients (%)","[1]; CLL/SLL, CS Group (N = 9)",1 (11.1%)
same,"AESI Mucositis, Related Grade 3, patients (%)","[1]; CLL/SLL, CS Group (N = 9)",0%
same,"AESI Pneumonia/Pneumonitis, All Grades, patients (%)","[1]; CLL/SLL, CS Group (N = 9)",3 (33.3%)
same,"AESI Pneumonia/Pneumonitis, Related Grade 3, patients (%)","[1]; CLL/SLL, CS Group (N = 9)",3 (33.3%)
same,"AESI Rash, all types, All Grades, patients (%)","[1]; CLL/SLL, CS Group (N = 9)",4 (44.0%)
same,"AESI Rash, all types, Related Grade 3, patients (%)","[1]; CLL/SLL, CS Group (N = 9)",0%
same,"AESI ALT/AST increased, All Grades, patients (%)","[1]; CLL/SLL, IS Group (N = 8)",0%
same,"AESI ALT/AST increased, Related Grade 3, patients (%)","[1]; CLL/SLL, IS Group (N = 8)",0%
same,"AESI Diarrhea/colitis, All Grades, patients (%)","[1]; CLL/SLL, IS Group (N = 8)",3 (37.5%)
same,"AESI Diarrhea/colitis, Related Grade 3, patients (%)","[1]; CLL/SLL, IS Group (N = 8)",1 (12.5%)
same,"AESI Mucositis, All Grades, patients (%)","[1]; CLL/SLL, IS Group (N = 8)",0%
same,"AESI Mucositis, Related Grade 3, patients (%)","[1]; CLL/SLL, IS Group (N = 8)",0%
same,"AESI Pneumonia/Pneumonitis, All Grades, patients (%)","[1]; CLL/SLL, IS Group (N = 8)",0%
same,"AESI Pneumonia/Pneumonitis, Related Grade 3, patients (%)","[1]; CLL/SLL, IS Group (N = 8)",0%
same,"AESI Rash, all types, All Grades, patients (%)","[1]; CLL/SLL, IS Group (N = 8)",2 (25.0%)
same,"AESI Rash, all types, Related Grade 3, patients (%)","[1]; CLL/SLL, IS Group (N = 8)",0%
same,"AESI ALT/AST increased, All Grades, patients (%)","[1]; FL, All (N = 40)",9 (22.5%)
same,"AESI ALT/AST increased, Related Grade 3, patients (%)","[1]; FL, All (N = 40)",3 (7.5%)
same,"AESI Diarrhea/colitis, All Grades, patients (%)","[1]; FL, All (N = 40)",17 (42.5%)
same,"AESI Diarrhea/colitis, Related Grade 3, patients (%)","[1]; FL, All (N = 40)",6 (15.0%)
same,"AESI Mucositis, All Grades, patients (%)","[1]; FL, All (N = 40)",6 (15.0%)
same,"AESI Mucositis, Related Grade 3, patients (%)","[1]; FL, All (N = 40)",1 (2.5%)
same,"AESI Pneumonia/Pneumonitis, All Grades, patients (%)","[1]; FL, All (N = 40)",2 (5.0%)
same,"AESI Pneumonia/Pneumonitis, Related Grade 3, patients (%)","[1]; FL, All (N = 40)",2 (5.0%)
same,"AESI Rash, all types, All Grades, patients (%)","[1]; FL, All (N = 40)",12 (30.0%)
same,"AESI Rash, all types, Related Grade 3, patients (%)","[1]; FL, All (N = 40)",4 (10.0%)
same,"AESI ALT/AST increased, All Grades, patients (%)","[1]; FL, CS Group (N = 25)",6 (24.0%)
same,"AESI ALT/AST increased, Related Grade 3, patients (%)","[1]; FL, CS Group (N = 25)",3 (12.0%)
same,"AESI Diarrhea/colitis, All Grades, patients (%)","[1]; FL, CS Group (N = 25)",10 (40.0%)
same,"AESI Diarrhea/colitis, Related Grade 3, patients (%)","[1]; FL, CS Group (N = 25)",5 (20.0%)
same,"AESI Mucositis, All Grades, patients (%)","[1]; FL, CS Group (N = 25)",6 (24.0%)
same,"AESI Mucositis, Related Grade 3, patients (%)","[1]; FL, CS Group (N = 25)",1 (4.0%)
same,"AESI Pneumonia/Pneumonitis, All Grades, patients (%)","[1]; FL, CS Group (N = 25)",2 (8.0%)
same,"AESI Pneumonia/Pneumonitis, Related Grade 3, patients (%)","[1]; FL, CS Group (N = 25)",2 (8.0%)
same,"AESI Rash, all types, All Grades, patients (%)","[1]; FL, CS Group (N = 25)",11 (44.0%)
same,"AESI Rash, all types, Related Grade 3, patients (%)","[1]; FL, CS Group (N = 25)",4 (16.0%)
same,"AESI ALT/AST increased, All Grades, patients (%)","[1]; FL, IS Group (N = 15)",3 (20.0%)
same,"AESI ALT/AST increased, Related Grade 3, patients (%)","[1]; FL, IS Group (N = 15)",0%
same,"AESI Diarrhea/colitis, Related Grade 3, patients (%)","[1]; FL, IS Group (N = 15)",1 (6.7%)
same,"AESI Mucositis, All Grades, patients (%)","[1]; FL, IS Group (N = 15)",0%
same,"AESI Mucositis, Related Grade 3, patients (%)","[1]; FL, IS Group (N = 15)",0%
same,"AESI Pneumonia/Pneumonitis, All Grades, patients (%)","[1]; FL, IS Group (N = 15)",0%
same,"AESI Pneumonia/Pneumonitis, Related Grade 3, patients (%)","[1]; FL, IS Group (N = 15)",0%
same,"AESI Rash, all types, All Grades, patients (%)","[1]; FL, IS Group (N = 15)",1 (6.7%)
same,"AESI Rash, all types, Related Grade 3, patients (%)","[1]; FL, IS Group (N = 15)",0%
same,"AESI Diarrhea/colitis, All Grades, patients (%)","[1]; FL, IS Group (N = 15), excluded 1 subject with diarrhea after POD and 1 with diarrhea lasting one day with no dose change",7 (46.7%)*
same,immune-mediated toxicities with IS administration,[1]; IS versus CS,reduces the incidence of or delayed onset of immune-mediated toxicities
same,period of CS dosing before onset of severe immune-related toxicities,"[1]; Phase 1b study, patients with B-cell malignancies, CS dosing",greater than 2 cycles
same,plasma levels versus tissue levels,[2],plasma levels underestimate tissue levels
